For eleven compounds, IC50 and GI50 results are on record in US20140051679A1, “KINASE INHIBITORS AND METHOD OF TREATING CANCER WITH SAME” (UNIVERISTY HEALTH NETWORKS, priority 2011, published 2014).

Assay [1] concerns the target T1, human TTK (Homo sapiens, UniProt P33981).
T1 construct: amino terminal GST fusion of full length human TTK; purchased Invitrogen
T1 sequence (P33981 1-857): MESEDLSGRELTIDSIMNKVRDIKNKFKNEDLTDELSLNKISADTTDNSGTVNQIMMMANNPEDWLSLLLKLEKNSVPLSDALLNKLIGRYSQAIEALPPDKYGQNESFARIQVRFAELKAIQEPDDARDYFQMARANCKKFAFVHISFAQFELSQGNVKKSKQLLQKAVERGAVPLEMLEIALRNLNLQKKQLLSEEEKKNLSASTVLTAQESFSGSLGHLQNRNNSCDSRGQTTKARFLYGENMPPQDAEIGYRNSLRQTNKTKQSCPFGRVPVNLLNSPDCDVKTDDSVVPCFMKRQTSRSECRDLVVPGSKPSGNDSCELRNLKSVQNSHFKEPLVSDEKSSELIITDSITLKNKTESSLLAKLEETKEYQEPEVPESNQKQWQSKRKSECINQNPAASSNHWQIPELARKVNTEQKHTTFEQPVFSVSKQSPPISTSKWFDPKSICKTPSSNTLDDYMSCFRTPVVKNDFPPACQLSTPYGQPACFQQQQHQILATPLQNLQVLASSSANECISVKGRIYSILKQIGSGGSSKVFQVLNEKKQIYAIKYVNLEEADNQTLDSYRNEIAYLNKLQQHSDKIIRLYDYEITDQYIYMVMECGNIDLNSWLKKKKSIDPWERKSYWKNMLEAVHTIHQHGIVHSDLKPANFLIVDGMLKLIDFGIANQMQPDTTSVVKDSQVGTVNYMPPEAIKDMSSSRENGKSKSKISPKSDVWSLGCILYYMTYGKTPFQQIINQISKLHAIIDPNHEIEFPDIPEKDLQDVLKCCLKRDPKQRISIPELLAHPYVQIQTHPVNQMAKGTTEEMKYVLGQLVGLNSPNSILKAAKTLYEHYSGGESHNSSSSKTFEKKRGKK
As to the kind of experiment: TTK inhibition assay (indirect ELISA). The class given is biochemical. Conditions: GST-TTK 0.68 nM, 16 μM ATP; read-out: IC50 Ranges TTK. A general note: ELISA stands for enzyme-linked immunosorbent assay.

Assay [2] deals with T2, human PLK4 (Homo sapiens, UniProt O00444).
T2 construct: amino terminal GST fusion of residues 1-391 of human PLK4; made in house; host or cells: E. coli
T2 sequence (O00444 1-391): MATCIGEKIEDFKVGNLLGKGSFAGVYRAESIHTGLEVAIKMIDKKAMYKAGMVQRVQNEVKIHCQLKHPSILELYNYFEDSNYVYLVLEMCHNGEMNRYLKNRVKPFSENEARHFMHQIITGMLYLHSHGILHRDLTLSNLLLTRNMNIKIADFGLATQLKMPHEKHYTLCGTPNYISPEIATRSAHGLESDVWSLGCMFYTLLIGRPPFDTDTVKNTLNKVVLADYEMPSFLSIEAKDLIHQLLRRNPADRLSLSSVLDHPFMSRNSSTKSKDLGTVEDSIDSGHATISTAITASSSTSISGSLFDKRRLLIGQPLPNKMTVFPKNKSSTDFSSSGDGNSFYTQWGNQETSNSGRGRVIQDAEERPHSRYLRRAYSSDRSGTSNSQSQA
Briefly: PLK4 inhibition assay (indirect ELISA). The class given is biochemical. Particulars: GST-PLK4 4 nM, 15 μM ATP; read-out: IC50 Ranges PLK4. The method in brief: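 Dephosphorylated GST-tagged human PLK4 (residues 1-391, E. coli), 4 nM, preincubated 15 min with compound, then reacted 30 min with 15 μM ATP on MBP-coated plates (50 mM HEPES pH 7.5, 10 mM MgCl2, 0.01% Brij 35). Phospho-MBP detected by antibody ELISA at 450 nm. Tested at 10 μM or 10-point titrations; IC50 from 4-parameter logistic fit.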

Assay [3] has as its target T3, Aurora B (Homo sapiens, UniProt Q96GD4).
T3 construct: purchased Invitrogen PV3970
As to the kind of experiment: Aurora B inhibition assay (Z-Lyte). The class given is biochemical. Particulars: 28 nM Aurora B, 128 μM ATP; read-out: IC50 Ranges Aurora B. How it is done:
Aurora B inhibition was determined using the Z-Lyte assay kit from Invitrogen. The assay was performed using the recommended manufacturer's instructions with 128 μM ATP and 28 nM Aurora B (Invitrogen cat #PV3970). The % inhibition values were determined according to the manufacturer's directions and IC50 values were obtained using a non-linear 4 point logistic curve fit (XLfit4, IDBS)

For assay [4], the system named is MDA-MB-231 breast cancer cells. As to the kind of experiment: Cell growth inhibition, Sulforhodamine B assay, MDA-MB-231. Conditions: Homo sapiens, 120 h, 5 days culture, SRB assay, read-out: Cell Line GI50 Range MDA-MB-231. The class given is cell-based. (In general: The SRB assay estimates cell density from bound dye.)
Assay [5] has as its system MDA-MB-468 breast cancer cells. As to the kind of experiment: Cell growth inhibition, Sulforhodamine B assay, MDA-MB-468. The class given is cell-based. Particulars: 5 days culture, SRB assay, read-out: Cell Line GI50 Range MDA-MB-468.
Experimental: Breast cancer cells (MDA-MB-231, MDA-MB-468), colon cancer cells (HCT116, HT29) and ovarian cancer cells (PA-1, OVCAR-3) were seeded (1000 to 4000 in 80 μl per well depending on the cell growth rate) into 96 well plates 24 hours before compound overlay. Compounds were prepared as 10 mM stock solutions in 100% DMSO which were diluted with DMEM (Dulbecco's Modified Eagle's Medium) cell growth Medium (Invitrogen, Burlington, ON, Canada) containing 10% FBS (Fetal Bovine Serum) to concentrations ranging from 50 nM to 250 μM. Aliquots (20 μl) from each concentration were overlaid to 80 μl of the pre-seeded cells in the 96 well plates to make final concentrations of 10 nM to 50 μM. The cells were cultured for 5 days before the Sulforhodamine B assay (SRB) was performed to determine the compound's cell growth inhibition activity.
Sulforhodamine B (purchased from Sigma, Oakville, ON, Canada) is a water-soluble dye that binds to the basic amino acids of the cellular proteins. Thus, colorimetric measurement of the bound dye provides an estimate of the total protein mass that is related to the cell number. the cells are fixed in situ by gently aspirating off the culture media and adding 50 μl ice cold 10% Trichloroacetic Acid (TCA) per well and incubate at 4° C. for 30-60 min, The plates are washed with water five times and allowed to air dry for 5 min. Addition of 50 μl 0.4% (w/v) SRB solution in 1% (v/v) acetic acid to each well and incubatation for 30 min at RT completes the staining reaction. Following staining, plates are washed four times with 1% acetic acid to remove unbound dye and then allowed to air dry for 5 min. The stain is solubilized with 100 μl of 10 mM Tris pH 10.5 per well. Absorbance is read at 570 nm.
The percentage (%) of relative growth inhibition was calculated by comparing to DMSO treated only cells (100%). […] The GI50 was calculated using GraphPad PRISM software (GraphPad Software, Inc., San Diego, Calif., USA).
The subject of assay [6] is HCT116 colon cancer cells. Briefly: Cell growth inhibition, Sulforhodamine B assay, HCT116. The class given is cell-based. Particulars: 5 days culture, SRB assay, read-out: Cell Line GI50 Range HCT116.
In assay [7] the test system is HT29 colon cancer cells. As to the kind of experiment: Cell growth inhibition, Sulforhodamine B assay, HT29. The class given is cell-based. Conditions: 5 days culture, SRB assay, read-out: Cell Line GI50 Range HT29.
The test system of assay [8] is PA-1 ovarian cancer cells. As to the kind of experiment: Cell growth inhibition, Sulforhodamine B assay, PA-1. The class given is cell-based. Particulars: 5 days culture, SRB assay, read-out: Cell Line GI50 Range PA-1.

Where two headings read alike, the source gives them in different places. Where only a bound is given, the exact number is not on record here.

T3 sequence (Q96GD4 whole entry): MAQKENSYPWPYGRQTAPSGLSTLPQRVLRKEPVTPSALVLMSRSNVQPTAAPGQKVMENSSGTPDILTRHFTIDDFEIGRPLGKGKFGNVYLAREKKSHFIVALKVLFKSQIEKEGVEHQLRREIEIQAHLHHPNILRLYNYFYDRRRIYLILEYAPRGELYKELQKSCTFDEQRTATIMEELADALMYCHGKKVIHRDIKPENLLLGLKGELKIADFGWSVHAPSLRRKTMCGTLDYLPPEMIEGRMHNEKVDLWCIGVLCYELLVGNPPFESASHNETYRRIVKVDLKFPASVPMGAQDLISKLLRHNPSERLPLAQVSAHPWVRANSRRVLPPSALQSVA

Regarding `COc1ccc(NC(=O)Nc2ccc3[nH]nc(-c4ccc(OC5CCN(C)CC5)cc4)c3c2)c(C)c1` [Example A81, 1-(4-methoxy-2-methylphenyl)-3-(3-(4-((1-methylpiperidin-4-yl)oxy)phenyl)-1H-indazol-5-yl)urea], the IC50 in assay [1], in assay [2] and in assay [3] was not above 5 µM each time. Further, the GI50 in assay [4] is 5 to 20 µM; in assay [5] (Homo sapiens, 120 h), not above 5 µM; in assay [6] (Homo sapiens, HCT-116, 120 h), not above 5 µM; in assay [7] (Homo sapiens, HT-29, 120 h), not above 5 µM; in assay [8] (120 h) it was not above 5 µM.

In the case of `CN1CCC(C(NC(=O)c2ccc3[nH]nc(-c4ccc(N5CCOCC5)cc4)c3c2)c2ccccc2)CC1` (stereo not drawn) [Example A85, N-((1-methylpiperidin-4-yl)(phenyl)methyl)-3-(4-morpholinophenyl)-1H-indazole-5-carboxamide], the IC50 in assay [1], in assay [2] and in assay [3] was not above 5 µM throughout. For the same compound, the GI50 is not above 5 µM in assay [4]; not above 5 µM in assay [5] (Homo sapiens, 120 h); not above 5 µM in assay [6] (Homo sapiens, HCT-116, 120 h); not above 5 µM in assay [7] (Homo sapiens, HT-29, 120 h); not above 5 µM in assay [8] (120 h).

Consider `CCc1cccc(CC)c1NC(=O)Nc1ccc2[nH]nc(-c3ccc(N4CCOCC4)cc3)c2c1` [Example A86, 1-(2,6-diethylphenyl)-3-(3-(4-morpholinophenyl)-1H-indazol-5-yl)urea], for which the IC50 in assay [1], in assay [2] and in assay [3] was not above 5 µM each time. Moreover, the GI50 was not above 5 µM in assay [4]; not above 5 µM in assay [5] (Homo sapiens, 120 h); not above 5 µM in assay [6] (Homo sapiens, HCT-116, 120 h); not above 5 µM in assay [7] (Homo sapiens, HT-29, 120 h); not above 5 µM in assay [8] (120 h).

Take `CN1CCOc2ccc(-c3n[nH]c4ccc(NC(=O)C(c5ccsc5)N5CCCC5)cc34)cc2C1` (stereo not drawn) [Example A90, N-(3-(4-methyl-2,3,4,5-tetrahydrobenzo[f][1,4]oxazepin-7-yl)-1H-indazol-5-yl)-2-(pyrrolidin-1-yl)-2-(thiophen-3-yl)acetamide]: the IC50 in assay [1], in assay [2] and in assay [3] was not above 5 µM each time. The GI50 in assay [4] is not above 5 µM; in assay [5] (Homo sapiens, 120 h), not above 5 µM; in assay [6] (Homo sapiens, HCT-116, 120 h), not above 5 µM; in assay [7] (Homo sapiens, HT-29, 120 h), not above 5 µM; in assay [8] (120 h), not above 5 µM.

On to `O=C(Nc1ccc2[nH]nc(-c3ccc(N4CCC(CO)CC4)cc3)c2c1)C(c1ccsc1)N1CCCC1` (stereo not drawn) [Example A95, N-(3-(4-(4-(hydroxymethyl)piperidin-1-yl)phenyl)-1H-indazol-5-yl)-2-(pyrrolidin-1-yl)-2-(thiophen-3-yl)acetamide], for which the IC50 in assay [1], in assay [2] and in assay [3] was not above 5 µM throughout. For the same compound, the GI50 was not above 5 µM in assay [5] (Homo sapiens, 120 h); not above 5 µM in assay [6] (Homo sapiens, HCT-116, 120 h); not above 5 µM in assay [7] (Homo sapiens, HT-29, 120 h); not above 5 µM in assay [8] (120 h).

On to `C[C@@H]1CCCN1[C@@H](C(=O)Nc1ccc2[nH]nc(-c3ccc(N4CCOCC4)cc3)c2c1)c1ccsc1` [Example A97, (R)-2-((R)-2-methylpyrrolidin-1-yl)-N-(3-(4-morpholinophenyl)-1H-indazol-5-yl)-2-(thiophen-3-yl)acetamide], for which the IC50 in assay [1], in assay [2] and in assay [3] was not above 5 µM in each case. In addition, the GI50 in assay [5] (Homo sapiens, 120 h) is not above 5 µM; in assay [6] (Homo sapiens, HCT-116, 120 h), not above 5 µM; in assay [7] (Homo sapiens, HT-29, 120 h), not above 5 µM; in assay [8] (120 h), not above 5 µM.

`O=C(Nc1ccc2[nH]nc(-c3ccc(NC4CCC(O)CC4)cc3)c2c1)C(c1ccsc1)N1CCCC1` (stereo not drawn) [Example A105, rel-N-(3-(4-(((1r,4r)-4-hydroxycyclohexyl)amino)phenyl)-1H-indazol-5-yl)-2-(pyrrolidin-1-yl)-2-(thiophen-3-yl)acetamide]: the IC50 in assay [1], in assay [2] and in assay [3] was not above 5 µM in each case. Also, the GI50 in assay [5], in assay [6], in assay [7] and in assay [8] was not above 5 µM throughout.

In the case of `CC(C)(O)C1CCN(c2ccc(-c3n[nH]c4ccc(NC(=O)C(c5ccsc5)N5CCCC5)cc34)cc2)CC1` (stereo not drawn) [Example A111, N-(3-(4-(4-(2-hydroxypropan-2-yl)piperidin-1-yl)phenyl)-1H-indazol-5-yl)-2-(pyrrolidin-1-yl)-2-(thiophen-3-yl)acetamide], the IC50 in assay [1], in assay [2] and in assay [3] was not above 5 µM each time. Further, the concentration for 50% growth inhibition (GI50) in assay [5] (Homo sapiens, 120 h) was not above 5 µM; in assay [6] (Homo sapiens, HCT-116, 120 h) it was not above 5 µM; in assay [7] (Homo sapiens, HT-29, 120 h), not above 5 µM; in assay [8] (120 h), not above 5 µM.

With `O=C(NC(c1ccsc1)C1CC1)c1ccc2[nH]nc(-c3ccc(OC4CCN(CCO)CC4)cc3)c2c1` (stereo not drawn) [Example A117, N-(cyclopropyl(thiophen-3-methyl-3-yl)methyl)-3-(4-((1-(2-hydroxyethyl)piperidin-4-yl)oxy)phenyl)-1H-indazole-5-carboxamide], the IC50 in assay [1], in assay [2] and in assay [3] was not above 5 µM throughout. Further, the GI50 in assay [5] (Homo sapiens, 120 h) is not above 5 µM; in assay [6] (Homo sapiens, HCT-116, 120 h), not above 5 µM; in assay [7] (Homo sapiens, HT-29, 120 h) it was not above 5 µM; in assay [8] (120 h), not above 5 µM.

With `Cc1ccccc1C(NC(=O)c1ccc2[nH]nc(-c3ccc(N4CCOCC4)cc3)c2c1)C1CC1` (stereo not drawn) [Example A119, N-(cyclopropyl(o-tolyl)methyl)-3-(4-morpholinophenyl)-1H-indazole-5-carboxamide], the IC50 in assay [1], in assay [2] and in assay [3] was not above 5 µM in each case. Further, the GI50 in assay [5] (Homo sapiens, 120 h) is not above 5 µM; in assay [6] (Homo sapiens, HCT-116, 120 h), not above 5 µM; in assay [7] (Homo sapiens, HT-29, 120 h) it was not above 5 µM; in assay [8] (120 h), not above 5 µM.

In the case of `O=C(Nc1ccc2[nH]nc(-c3ccc(N4CC(O)C4)cc3)c2c1)C(c1ccsc1)N1CCCC1` (stereo not drawn) [Example A120, N-(3-(4-(3-Hydroxyazetidin-1-yl)phenyl)-1H-indazol-5-yl)-2-(pyrrolidin-1-yl)-2-(thiophen-3-yl)acetamide], the IC50 in assay [1], in assay [2] and in assay [3] was not above 5 µM in each case. Besides, the GI50 in assay [5] (Homo sapiens, 120 h) was not above 5 µM; in assay [6] (Homo sapiens, HCT-116, 120 h), not above 5 µM; in assay [7] (Homo sapiens, HT-29, 120 h), not above 5 µM; in assay [8] (120 h) it was not above 5 µM.

The IC50 is the point on the concentration scale where inhibition reaches its midpoint. What is called GI50 is the concentration that inhibits growth by half.
